Results from patent US11191722B2, “Treatment of diabetes mellitus by long-acting formulations of insulins” (SANOFI, priority 2013, dated 2021).

Test system: patients with type 2 diabetes mellitus
Conditions: in vivo
From the text: Hypoglycemia, occurrence of adverse events particularly treatment-emergent adverse events (TEAEs) and serious adverse events (SAEs), injection site reactions and hypersensitivity reactions.
Safety analyses were descriptive, based on the safety population.

Substance	Death on-study during first 6 months	Death post-study
insulin glargine [HOE901-U300]	2 (0.5%) n (%)	0 n (%)
insulin glargine [Lantus]	2 (0.5%) n (%)	0 n (%)
